These results are taken from ChEMBL document CHEMBL4418485, “Klf5 modulators” (2015).

The source made the active and inactive calls. The calls are words filed in the database; no cut-off is given here. Some results are limits rather than exact numbers.

One data set deals with SW-620. The experiment in a line: Reduction in KLF5 protein expression in human SW620 cells at 10 uM by gel electrophoresis and autoradiography. The data set is classed as functional, cell-based.
Data set [1] concerns DLD-1. The experiment in a line: Reduction in KLF5 protein expression in human DLD1 cells at 10 uM by gel electrophoresis and autoradiography. The data set is classed as functional, cell-based.
Another data set has as its system HCT-116. The experiment in a line: Reduction in KLF5 protein expression in human HCT116 cells at 10 uM by gel electrophoresis and autoradiography. In kind it is functional, cell-based.
In a further data set the test system is HT-29. The experiment in a line: Reduction in KLF5 protein expression in human HT-29 cells at 10 uM by gel electrophoresis and autoradiography. The data set is classed as functional, cell-based.
Data set [2] deals with DLD-1. The experiment in a line: Cell cycle arrest in human DLD1 cells assessed as accumulation at S phase accumulation after 24 hrs (reference value: 18.05 +/- 1.13%). In kind it is functional.
Another data set relates to IEC-6. The data set is described as follows: Growth inhibition of rat IEC-6 cells relative to control. In kind it is cell-based.
Data set [3] relates to DLD-1. The data set is described as follows: Cell cycle arrest in human DLD1 cells assessed as accumulation at G1 phase accumulation after 24 hrs (reference value: 34.78 +/- 2.58%). The data set is classed as functional.
In data set [4] the test system is DLD-1. The experiment in a line: Cell cycle arrest in human DLD1 cells assessed as accumulation at subG1 phase accumulation after 48 hrs (reference value: 1.27 +/- 0.15%). In kind it is functional.
In data set [5] the test system is DLD-1. The data set is described as follows: Cell cycle arrest in human DLD1 cells assessed as accumulation at G2/M phase accumulation after 48 hrs (reference value: 58.17 +/- 4.4%). In kind it is functional.
The subject of data set [6] is DLD-1. The data set is described as follows: Cell cycle arrest in human DLD1 cells assessed as accumulation at S phase accumulation after 48 hrs (reference value: 8.06 +/- 1.35%). In kind it is functional.
Data set [7] relates to DLD-1. The data set is described as follows: Cell cycle arrest in human DLD1 cells assessed as accumulation at G1 phase accumulation after 48 hrs (reference value: 32.63 +/- 3.18%). The data set is classed as functional.
The test system of data set [8] is DLD-1. The experiment in a line: Cell cycle arrest in human DLD1 cells assessed as accumulation at subG1 phase accumulation after 24 hrs (reference value: 0.81 +/- 0.13%). In kind it is functional.
Data set [9] relates to DLD-1. The data set is described as follows: Cell cycle arrest in human DLD1 cells assessed as accumulation at G2/M phase accumulation after 24 hrs (reference value: 46.58 +/- 3.73%). In kind it is functional.

On to `CN(C(=O)COC(=O)/C=C/c1cccc([N+](=O)[O-])c1)C1CCS(=O)(=O)C1` (stereo not given), for which the outcome in the data set on SW-620, in the data set on DLD-1 [1], with HCT-116 and in the data set on HT-29 was inactive.

In the case of `CN(C(=O)CNC(=O)/C=C/c1cccc(Cl)c1)C1CCS(=O)(=O)C1` (stereo not given), the outcome in the data set with SW-620, with DLD-1 [1], in the data set with HCT-116 and with HT-29 was inactive.

In the case of `CN(C(=O)CNC(=O)/C=C/c1cccc(Cl)c1)C1CCS(=O)(=O)CC1`, the outcome with SW-620, in the data set with DLD-1 [1], in the data set with HCT-116 and in the data set with HT-29 was Active. Besides, the Activity in the data set with DLD-1 [2] came to 18.47%; in the data set on DLD-1 [3], 44.15%; in the data set on DLD-1 [4], 9.63%; in the data set with DLD-1 [5], 39.36%; with DLD-1 [6], 19.74%; in the data set with DLD-1 [7], 31.58%. Besides, the Activity is 7.82% in the data set on DLD-1 [8] and 29.81% with DLD-1 [9]. Moreover, the “growth inhibition (GI)” value in the data set with IEC-6 was below 50%.

In the case of `CN(C(=O)CNC(=O)/C=C/c1cccc([N+](=O)[O-])c1)C1CCS(=O)(=O)C1` (stereo not given), the outcome in the data set on SW-620, in the data set on DLD-1 [1], in the data set on HCT-116 and in the data set on HT-29 was inactive.
